Measurements reported in patent US20240307382A1, “MODULATORS OF THE INTEGRATED STRESS PATHWAY” (Calico Life Sciences LLC, priority 2017, published 2024).

System: HEK293T cells carrying the ATF4 luciferase reporter
Test: ATF4-Luc assay (ATF4 luciferase reporter, tunicamycin-treated cells)
Format: cell-based
Settings: Homo sapiens, HEK-293T, 1 μg/mL tunicamycin, 7 hours
Description: In order to test exemplary compounds of the invention in a cellular context, a stable VWMD cell line was first constructed. The ATF4 reporter was prepared by fusing the human full-length ATF4 5′-UTR (NCBI Accession No. BC022088.2) in front of the firefly luciferase (FLuc) coding sequence lacking the initiator methionine as described in Sidrauski et al (eLife 2013). The construct was used to produce recombinant retroviruses using standard methods and the resulting viral supermatant was used to transduce ITEK293T cells, which were then subsequently selected with puromycin to generate a stable cell line.
HTEK293T cells carrying the ATF4 luciferase reporter were plated on polylysine coated 384-well plates (Greiner Bio-one) at 30,000 cells per well. Cells were treated the next day with 1 μg/mL tunicamycin and 200 nM of a compound of Formula (I) for 7 hours. Luminescence was measured using One Glo (Promega) as specified by the manufacturer. Cells were maintained in DMEM with L-glutamine supplemented with 10% heat-inactivated FBS (Gibco) and Antibiotic-Antimycotic solution (Gibco).
Table 2 below summarizes the EC50 data obtained using the ATF4-Luc assay for exemplary compounds of the invention.

| SMILES | EC50 [nM] |
| --- | --- |
| O=C(COc1ccc(Cl)c(F)c1)NC12CCC(NC(=O)c3coc(C(F)(F)F)n3)(CC1)C[C@@H]2O [Compound 1004, N-{(3S)-4-[2-(4-chloro-3-fluorophenoxy)acetamido]-3-hydroxybicyclo[2.2.2]octan-1-yl}-2-(trifluoromethyl)-1,3-oxazole-4-carboxamide] | < 50 |
| O=C(COc1ccc(Cl)c(Cl)c1)NC12CCC(NC(=O)c3cnc4cc(F)ccc4n3)(CC1)C[C@@H]2O [Compound 1005, N-{(3S)-4-[2-(3,4-dichlorophenoxy)acetamido]-3-hydroxybicyclo[2.2.2]octan-1-yl}-6-fluoroquinoxaline-2-carboxamide] | < 50 |
| O=C(COc1ccc(Cl)c(F)c1)NC12CCC(NC(=O)c3cnc4cc(F)ccc4n3)(CC1)C[C@@H]2O [Compound 1006, N-{(3S)-4-[2-(4-chloro-3-fluorophenoxy)acetamido]-3-hydroxybicyclo[2.2.2]octan-1-yl}-6-fluoroquinoxaline-2-carboxamide] | < 50 |
| Cn1nc(C(=O)NC23CCC(NC(=O)COc4ccc(Cl)c(Cl)c4)(CC2)[C@@H](O)C3)cc1C(F)(F)F [Compound 1007, N-{(3S)-4-[2-(3,4-dichlorophenoxy)acetamido]-3-hydroxybicyclo[2.2.2]octan-1-yl}-1-methyl-5-(trifluoromethyl)-1H-pyrazole-3-carboxamide] | < 50 |
| O=C(COc1ccc(Cl)c(Cl)c1)NC12CCC(NC(=O)c3cnc4ccccc4n3)(CC1)C[C@@H]2O [Compound 1008, N-{(3S)-4-[2-(3,4-dichlorophenoxy)acetamido]-3-hydroxybicyclo[2.2.2]octan-1-yl}quinoxaline-2-carboxamide] | < 50 |
| O=C(COc1ccc(Cl)c(Cl)c1)NC12CCC(NC(=O)c3coc(C(F)(F)F)n3)(CC1)C[C@@H]2O [Compound 1009, N-{(3S)-4-[2-(3,4-dichlorophenoxy)acetamido]-3-hydroxybicyclo[2.2.2]octan-1-yl}-2-(trifluoromethyl)-1,3-oxazole-4-carboxamide] | < 50 |
| Cn1nc(C(F)F)cc1C(=O)NC12CCC(NC(=O)COc3ccc(Cl)c(Cl)c3)(CC1)[C@@H](O)C2 [Compound 1010, N-{(3S)-4-[2-(3,4-dichlorophenoxy)acetamido]-3-hydroxybicyclo[2.2.2]octan-1-yl}-3-(difluoromethyl)-1-methyl-1H-pyrazole-5-carboxamide] | < 50 |
| O=C(COc1ccc(Cl)c(Cl)c1)NC12CCC(NC(=O)c3cnc(C(F)(F)F)cn3)(CC1)C[C@@H]2O [Compound 1011, N-{(3S)-4-[2-(3,4-dichlorophenoxy)acetamido]-3-hydroxybicyclo[2.2.2]octan-1-yl}-5-(trifluoromethyl)pyrazine-2-carboxamide] | 50 to 250 |
| CC(C)c1cc(C(=O)NC23CCC(NC(=O)COc4ccc(Cl)c(Cl)c4)(CC2)[C@@H](O)C3)on1 [Compound 1012, N-{(3S)-4-[2-(3,4-dichlorophenoxy)acetamido]-3-hydroxybicyclo[2.2.2]octan-1-yl}-3-(propan-2-yl)-1,2-oxazole-5-carboxamide] | < 50 |
| O=C(COc1ccc(Cl)c(Cl)c1)NC12CCC(NC(=O)c3cc(C4CC4)no3)(CC1)C[C@@H]2O [Compound 1013, 3-cyclopropyl-N-{(3S)-4-[2-(3,4-dichlorophenoxy)acetamido]-3-hydroxybicyclo[2.2.2]octan-1-yl}-1,2-oxazole-5-carboxamide] | < 50 |
| O=C(COc1ccc(Cl)c(Cl)c1)NC12CCC(NC(=O)c3ccc(N4CCCC4)cn3)(CC1)C[C@@H]2O [Compound 1014, N-{(3S)-4-[2-(3,4-dichlorophenoxy)acetamido]-3-hydroxybicyclo[2.2.2]octan-1-yl}-5-(pyrrolidin-1-yl)pyridine-2-carboxamide] | > 2000 |
| Cc1cc(C(=O)NC23CCC(NC(=O)COc4ccc(F)c(Cl)c4)(CC2)[C@@H](O)C3)on1 [Compound 1015, N-{(3S)-4-[2-(3-chloro-4-fluorophenoxy)acetamido]-3-hydroxybicyclo[2.2.2]octan-1-yl}-3-methyl-1,2-oxazole-5-carboxamide] | 50 to 250 |
| Cc1cc(C(=O)NC23CCC(NC(=O)COc4ccc(Cl)cc4)(CC2)[C@@H](O)C3)on1 [Compound 1016, N-{(3S)-4-[2-(4-chlorophenoxy)acetamido]-3-hydroxybicyclo[2.2.2]octan-1-yl}-3-methyl-1,2-oxazole-5-carboxamide] | 50 to 250 |
| O=C(COc1ccc(Cl)c(Cl)c1)NC12CCC(NC(=O)c3cc(C(F)(F)F)no3)(CC1)C[C@@H]2O [Compound 1017, N-{(3S)-4-[2-(3,4-dichlorophenoxy)acetamido]-3-hydroxybicyclo[2.2.2]octan-1-yl}-3-(trifluoromethyl)-1,2-oxazole-5-carboxamide] | < 50 |
| O=C(COc1ccc(Cl)c(F)c1)NC12CCC(NC(=O)c3cc(-c4ccccc4)no3)(CC1)C[C@@H]2O [Compound 1018, N-{(3S)-4-[2-(4-chloro-3-fluorophenoxy)acetamido]-3-hydroxybicyclo[2.2.2]octan-1-yl}-3-phenyl-1,2-oxazole-5-carboxamide] | < 50 |
| CCc1c(C(=O)NC23CCC(NC(=O)COc4ccc(Cl)c(F)c4)(CC2)[C@@H](O)C3)nn(C)c1-c1ccccc1 [Compound 1019, N-{(3S)-4-[2-(4-chloro-3-fluorophenoxy)acetamido]-3-hydroxybicyclo[2.2.2]octan-1-yl}-4-ethyl-1-methyl-5-phenyl-1H-pyrazole-3-carboxamide] | 1000 to 2000 |
| Cn1nc(-c2ccccc2)cc1C(=O)NC12CCC(NC(=O)COc3ccc(Cl)c(F)c3)(CC1)[C@@H](O)C2 [Compound 1020, N-{(3S)-4-[2-(4-chloro-3-fluorophenoxy)acetamido]-3-hydroxybicyclo[2.2.2]octan-1-yl}-1-methyl-3-phenyl-1H-pyrazole-5-carboxamide] | < 50 |
| Cc1oc(-c2ccccc2)cc1C(=O)NC12CCC(NC(=O)COc3ccc(Cl)c(F)c3)(CC1)[C@@H](O)C2 [Compound 1021, N-{(3S)-4-[2-(4-chloro-3-fluorophenoxy)acetamido]-3-hydroxybicyclo[2.2.2]octan-1-yl}-2-methyl-5-phenylfuran-3-carboxamide] | < 50 |
| O=C(COc1ccc(Cl)c(F)c1)NC12CCC(NC(=O)c3cc(-c4ccccc4)[nH]n3)(CC1)C[C@@H]2O [Compound 1022, N-{(3S)-4-[2-(4-chloro-3-fluorophenoxy)acetamido]-3-hydroxybicyclo[2.2.2]octan-1-yl}-5-phenyl-1H-pyrazole-3-carboxamide] | < 50 |
| Cn1ncc2cc(C(=O)NC34CC(NC(=O)COc5ccc(Cl)c(F)c5)(C3)C4)ccc21 [Compound 1023, N-{3-[2-(4-chloro-3-fluorophenoxy)acetamido]bicyclo[1.1.1]pentan-1-yl}-1-methyl-1H-indazole-5-carboxamide] | 250 to 1000 |
| O=C(COc1ccc(Cl)c(Cl)c1)NC12CCC(NC(=O)c3ccc(OC(F)(F)F)cn3)(CC1)C[C@@H]2O [Compound 1024, N-{(3S)-4-[2-(3,4-dichlorophenoxy)acetamido]-3-hydroxybicyclo[2.2.2]octan-1-yl}-5-(trifluoromethoxy)pyridine-2-carboxamide] | < 50 |
| O=C(COc1ccc(Cl)c(Cl)c1)NC12CCC(NC(=O)c3cccc(O)n3)(CC1)C[C@@H]2O [Compound 1025, N-{(3S)-4-[2-(3,4-dichlorophenoxy)acetamido]-3-hydroxybicyclo[2.2.2]octan-1-yl}-6-hydroxypyridine-2-carboxamide] | < 50 |
| O=C(COc1ccc(Cl)c(Cl)c1)NC12CCC(NC(=O)c3ccccn3)(CC1)C[C@@H]2O [Compound 1026, N-{(3S)-4-[2-(3,4-dichlorophenoxy)acetamido]-3-hydroxybicyclo[2.2.2]octan-1-yl}pyridine-2-carboxamide] | < 50 |
| O=C(COc1ccc(Cl)c(Cl)c1)NC12CCC(NC(=O)c3cccc(C(F)(F)F)n3)(CC1)C[C@@H]2O [Compound 1027, N-{(3S)-4-[2-(3,4-dichlorophenoxy)acetamido]-3-hydroxybicyclo[2.2.2]octan-1-yl}-6-(trifluoromethyl)pyridine-2-carboxamide] | < 50 |
| CC(C)Oc1ccc(C(=O)NC23CCC(NC(=O)COc4ccc(Cl)c(Cl)c4)(CC2)[C@@H](O)C3)nc1 [Compound 1028, N-{(3S)-4-[2-(3,4-dichlorophenoxy)acetamido]-3-hydroxybicyclo[2.2.2]octan-1-yl}-5-[(propan-2-yl)oxy]pyridine-2-carboxamide] | 50 to 250 |
| Cc1ccc(C(=O)NC23CCC(NC(=O)COc4ccc(Cl)c(Cl)c4)(CC2)[C@@H](O)C3)nc1 [Compound 1029, N-{(3S)-4-[2-(3,4-dichlorophenoxy)acetamido]-3-hydroxybicyclo[2.2.2]octan-1-yl}-5-methylpyridine-2-carboxamide] | < 50 |
| O=C(COc1ccc(Cl)c(Cl)c1)NC12CCC(NC(=O)c3cc(C(F)(F)F)ccn3)(CC1)C[C@@H]2O [Compound 1030, N-{(3S)-4-[2-(3,4-dichlorophenoxy)acetamido]-3-hydroxybicyclo[2.2.2]octan-1-yl}-4-(trifluoromethyl)pyridine-2-carboxamide] | 50 to 250 |
| O=C(COc1ccc(Cl)c(Cl)c1)NC12CCC(NC(=O)c3ccc(C(F)(F)F)cn3)(CC1)C[C@@H]2O [Compound 1031, N-{(3S)-4-[2-(3,4-dichlorophenoxy)acetamido]-3-hydroxybicyclo[2.2.2]octan-1-yl}-5-(trifluoromethyl)pyridine-2-carboxamide] | < 50 |
